From ChEMBL document CHEMBL4842336, “Synthesis and computational studies of novel fused pyrimidinones as a promising scaffold with analgesic, anti-inflammatory and COX inhibitory potential” (Eur J Med Chem, 2021)

Legend:
Rattus norvegicus [1] = assay: Analgesic activity against p-benzoquinone induced writhing in albino rat model assessed as protection rate at 28 uM/kg, ip measured after 30 mins relative to control; type: functional; conditions: 0.5 h, at 28 µmol/kg
Rattus norvegicus [2] = assay: Analgesic activity against p-benzoquinone induced writhing in albino rat model assessed as protection rate at 28 uM/kg, ip measured after 30 mins relative to indomethacin; type: functional; conditions: 0.5 h, at 28 µmol/kg
[3] = Toxicity in albino rat assessed as decrease in body weight at; conditions: in vivo, 24 h, dose <140 µM/Kg
Rattus norvegicus [4] = assay: Anti-inflammatory activity in Wistar albino rat model of carragenan-induced paw edema assessed as reduction in edema thickness at 28 uM/kg, ip measured after 2 hrs by plethysmometer (Rvb =1.6 +/- 0.12 millimeter); type: functional
Rattus norvegicus [5] = assay: Anti-inflammatory activity in Wistar albino rat model of carragenan-induced paw edema assessed as inhibition of inflammation at 28 uM/kg, ip measured after 2 hrs by plethysmometer relative to control; type: functional
Rattus norvegicus [6] = assay: Anti-inflammatory activity in Wistar albino rat model of carragenan-induced paw edema assessed as reduction in edema thickness at 28 uM/kg, ip measured after 3 hrs by plethysmometer (reference value: 1.64 +/- 0.04 millimeter); type: functional; design: scale not given: the % may be the effect or the level left; conditions: at 28 µmol/kg
Rattus norvegicus [7] = assay: Anti-inflammatory activity Wistar albino rat model of carragenan-induced paw edema assessed as inhibition of inflammation at 28 uM/kg, ip measured after 3 hrs by plethysmometer relative to control; type: functional; design: scale not given: the % may be the effect or the level left; conditions: at 28 µmol/kg
[8] = Ulcerogenic activity in fasted albino rat assessed as incidence of ulceration at 28 uM/kg, po administered for 3 consecutive days (reference value: 0 %); type: toxicity, organism-based; conditions: in vivo, 72 h, time 3 day
[9] = Ulcerogenic activity in fasted albino rat assessed as number of ulcers at 28 uM/kg, po administered for 3 consecutive days (reference value: 0 %); type: toxicity, organism-based; conditions: in vivo, 72 h, time 3 day
[10] = Ulcerogenic activity in fasted albino rat assessed as severity of ulcers at 28 uM/kg, po administered for 3 consecutive days (reference value: 0 %); type: toxicity, organism-based; conditions: in vivo, 72 h, time 3 day
[11] = Ulcerogenic activity in fasted albino rat assessed as ulcer index at 28 uM/kg, po administered for 3 consecutive days (reference value: 0); type: toxicity, organism-based; conditions: in vivo, 72 h, time 3 day
[12] = biological target: T1, Prostaglandin G/H synthase 1 (Ovis aries, UniProt P05979); assay: Inhibition of ovine COX-1 using arachidonic acid as substrate by fluorescence assay
T1 sequence (P05979 whole entry): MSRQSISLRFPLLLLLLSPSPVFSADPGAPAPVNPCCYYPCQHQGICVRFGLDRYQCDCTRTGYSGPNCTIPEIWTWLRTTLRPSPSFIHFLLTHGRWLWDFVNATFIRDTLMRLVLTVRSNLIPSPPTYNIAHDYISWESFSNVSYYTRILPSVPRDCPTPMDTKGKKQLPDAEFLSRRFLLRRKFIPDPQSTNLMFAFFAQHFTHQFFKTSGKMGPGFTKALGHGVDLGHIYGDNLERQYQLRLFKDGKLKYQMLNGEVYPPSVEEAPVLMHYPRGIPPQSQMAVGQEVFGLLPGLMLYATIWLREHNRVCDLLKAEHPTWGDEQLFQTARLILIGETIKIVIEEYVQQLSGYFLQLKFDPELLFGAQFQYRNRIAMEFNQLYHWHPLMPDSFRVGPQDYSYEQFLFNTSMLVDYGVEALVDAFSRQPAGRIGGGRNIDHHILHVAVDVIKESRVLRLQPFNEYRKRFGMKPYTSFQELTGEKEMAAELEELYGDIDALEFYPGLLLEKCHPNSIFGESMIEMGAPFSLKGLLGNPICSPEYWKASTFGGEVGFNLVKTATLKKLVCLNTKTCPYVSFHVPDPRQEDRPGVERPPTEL

Structure (SMILES) | Activity (Rattus norvegicus [1]) [%] | Activity (Rattus norvegicus [2]) [%] | Activity [3] | Activity (Rattus norvegicus [4]) [mm] | Activity (Rattus norvegicus [5]) [mm] | Activity (Rattus norvegicus [6]) [%] | Activity (Rattus norvegicus [7]) [%] | Activity [8] [%] | Activity [9] [%] | Activity [10] [%] | UI [11] | IC50 [12] [nM]
Cc1nc2sc(-c3ccc(Cl)cc3)nn2c(=O)c1CCN1CCCCC1 | 50 | 60 |  |  |  |  |  |  |  |  |  | 
Cc1nc2sc(-c3ccc(Cl)cc3)nn2c(=O)c1CCN1CCN(c2ccccc2)CC1 | 66 | 60 |  |  |  |  |  |  |  |  |  | 
Cc1nc2oc(-c3ccccc3)nn2c(=O)c1CCN1CCN(c2ccccc2)CC1 | 50 | 60 |  |  |  |  |  |  |  |  |  | 
Cc1nc2oc(-c3ccccc3)nn2c(=O)c1CCN1CCOCC1 | 50 | 60 |  |  |  |  |  |  |  |  |  | 
COc1ccc(N2CCN(CCc3c(C)nc4oc(-c5ccccc5)nn4c3=O)CC2)cc1 | 100 | 120 | Non-Toxic | 0.43 | 0.62 | 73.12 | 61.7 | 2 | 0.8 | 1 | 3.8 | 140
Cc1nc2oc(-c3ccc(Cl)cc3)nn2c(=O)c1CCN1CCCCC1 | 66 | 80 |  |  |  |  |  |  |  |  |  | 
Cc1nc2oc(-c3ccc(Cl)cc3)nn2c(=O)c1CCN1CCN(c2ccccc2)CC1 | 83 | 100 | Non-Toxic | 0.08 | 0.48 | 94.75 | 70.73 | 4 | 0.6 | 1 | 5.6 | 148
COc1ccc(N2CCN(CCc3c(C)nc4oc(-c5ccc(Cl)cc5)nn4c3=O)CC2)cc1 | 83 | 100 | Non-Toxic | 0.43 | 0.14 | 73.12 | 91 | 4 | 0.8 | 1 | 5.8 | 350
Cc1nc2oc(-c3ccc(Cl)cc3)nn2c(=O)c1CCN1CCOCC1 | 66 | 80 |  |  |  |  |  |  |  |  |  | 
COc1ccc(N2CCN(CCc3c(C)nc4sc(-c5ccc(Cl)cc5)nn4c3=O)CC2)cc1 | 66 | 60 |  |  |  |  |  |  |  |  |  | 
Cc1nc2sc(-c3ccc(Cl)cc3)nn2c(=O)c1CCN1CCOCC1 | 66 | 80 |  |  |  |  |  |  |  |  |  | 
COc1ccc2c(c1)c(CC(=O)O)c(C)n2C(=O)c1ccc(Cl)cc1 [INDOMETHACIN] | 83 | 100 |  | 0.42 | 0.55 | 73.29 | 66.46 | 8 | 2.6 | 1.18 | 11.78 | 
Cc1nc2oc(-c3ccccc3)nn2c(=O)c1CCN1CCCCC1 | 83 | 100 | Non-Toxic | 0.38 | 0.7 | 76.25 | 56.16 | 4 | 2.2 | 1.2 | 7.4 | 350
